Laboratory results reported in patent publication US8772500B2, “TRPV3 modulators” (AbbVie Inc., priority 2011, dated 2014).
Read-outs that look alike come from different tables or passages of the source.

Columns and labels:
[1] = system: CD1 mice; assay: In vivo chronic constriction injury (CCI) model of neuropathic pain, mechanical allodynia (von Frey); details: 100 mg/kg oral dose, 1 hour after dosing, average of eight mice; vehicle 0%, control 100%
Protocol: Test compounds were evaluated for analgesic effect in an in vivo chronic constriction injury (CCI) model of neuropathic pain. CD1 mice (Charles River) were used for these studies. Prior to testing (2-4 weeks) animals underwent a surgical procedure consisting of approximately 3 loose ligatures around the sciatic nerve. Following sterilization procedures, under isofluorane anesthetic, a 1.5 cm incision was made dorsal to the pelvis. The biceps femoris and gluteous superficialis (right side) were separated and the sciatic nerve exposed, isolated, and 2-4 loose ligatures (5-0 chromic gut) with less than 1 mm spacing were placed around it. Following hemostasis, the wound was sutured (layer of muscle closed with 5-0 nylon suture, and the wound closed with surgical staples) and coated with iodine. The mice were allowed to recover on a warming plate and were returned to their home cages (soft bedding) when able to walk on their own.
Two to four weeks after the surgery, test compound was administered orally (PO) in these mice, and mechanical allodynia was evaluated 1 hour after oral dosing where the threshold to response was assessed using calibrated von Frey monofilaments. The von Frey monofilaments were applied to the hind paw at increasing forces until the animal responded by lifting its paw. […]
Each test compound was evaluated in eight different mice. […]

[2] = In vitro rat microsomal stability assay; format: in vitro ADME, rat (Sprague-Dawley)
How it was run: (§1)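 Liver microsomes: Sprague-Dawley rat for rat assay, human for human assay; 37 °C; NADPH cofactor, also spiked into time-zero plates.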

[3] = In vitro human microsomal stability assay; format: in vitro ADME
How it was run: as §1

[4] = molecular target: T1, human TRPV3 (Homo sapiens, UniProt Q8NET8); assay: In vitro antagonism of recombinant human TRPV3 activation (FLIPR Tetra calcium assay, 2-APB as agonist); format: cell-based; details: HEK293 cells stably expressing human TRPV3, 2-APB 80 μM
T1 construct: expressed in transfected cells
T1 sequence (Q8NET8 1-790): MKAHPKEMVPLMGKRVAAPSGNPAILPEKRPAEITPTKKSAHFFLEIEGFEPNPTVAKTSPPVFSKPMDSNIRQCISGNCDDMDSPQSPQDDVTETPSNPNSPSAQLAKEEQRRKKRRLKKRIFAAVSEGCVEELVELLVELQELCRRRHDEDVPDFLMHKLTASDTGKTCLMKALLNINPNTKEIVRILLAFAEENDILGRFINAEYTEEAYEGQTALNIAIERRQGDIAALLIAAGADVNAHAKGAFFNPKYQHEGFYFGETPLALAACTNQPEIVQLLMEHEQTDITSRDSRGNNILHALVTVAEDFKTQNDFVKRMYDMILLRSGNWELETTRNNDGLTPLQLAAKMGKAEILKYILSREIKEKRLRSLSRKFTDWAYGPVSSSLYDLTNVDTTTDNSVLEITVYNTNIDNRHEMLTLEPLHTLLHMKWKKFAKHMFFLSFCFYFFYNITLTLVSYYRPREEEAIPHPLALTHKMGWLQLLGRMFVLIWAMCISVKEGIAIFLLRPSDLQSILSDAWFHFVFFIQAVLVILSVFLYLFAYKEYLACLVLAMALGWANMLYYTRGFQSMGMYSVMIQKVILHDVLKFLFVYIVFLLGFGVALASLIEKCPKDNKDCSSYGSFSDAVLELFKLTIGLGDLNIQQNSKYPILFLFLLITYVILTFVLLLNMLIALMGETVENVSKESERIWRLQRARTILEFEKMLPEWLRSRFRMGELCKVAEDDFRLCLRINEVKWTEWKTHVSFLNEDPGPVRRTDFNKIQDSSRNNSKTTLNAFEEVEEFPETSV
How it was run: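 Readout is FLIPR fluorescence, max minus min as percent of uninhibited 2-APB response, giving IC50 (usually mean of ≥2 runs). Stable human TRPV3 HEK293 cells, Calcium-4 dye-loaded, got test compound then, three minutes later, 80 μM 2-APB (EC80); run length 10 min.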

[5] = 0.5 μM substrate, 0.25 mg/mL microsomal protein, pH 7.4, 37° C., NADPH, 30 minutes
[6] = range class, read-out: IC50 (reported range)
[7] = Sprague-Dawley, rat, 0.5 h, 0.5 μM, pH 7.4

Row | IC50 [4, 6] | RAT MICROSOMAL STABILITY (% REMAINING AFTER 30 MINUTES) [2, 7] | HUMAN MICROSOMAL STABILITY (% REMAINING AFTER 30 MINUTES) ([3]; human, 0.5 h, 0.5 μM, pH 7.4) | Compound | other results
1 | – | – | – | C[C@]1(O)C[C@](c2cc(C(F)(F)F)ccn2)([C@H](O)c2ccccn2)C1 (relative stereo) [Example 285, cis-3-[(S)-hydroxy(pyridin-2-yl)methyl]-1-methyl-3-[4-(trifluoromethyl)-pyridin-2-yl]cyclobutanol] | % EFFECT [1]: 59%; RAT […] (% REMAINING AFTER 30 MINUTES) [2, 5]: 69%; HUMAN […] (% REMAINING AFTER 30 MINUTES) [3, 5]: 83%
2 | 501 to 1000 nM | 5.4% | 19% | OC(c1ccccn1)C1(c2nc3ccc(Cl)cc3s2)CCC1 (stereo not shown) [Example 292, [1-(6-chloro-1,3-benzothiazol-2-yl)cyclobutyl](pyridin-2-yl)methanol] | –
3 | 1100 to 5000 nM | 0.020% | 35% | OC(c1ccccn1)C1(c2nc3ccc(F)cc3s2)CCC1 (stereo not shown) [Example 300, [1-(6-fluoro-1,3-benzothiazol-2-yl)cyclobutyl](pyridin-2-yl)methanol] | –
4 | 5100 to 20000 nM | 22% | 57% | OC(c1ccccn1)C1(c2nc3ccc(Cl)cc3o2)CCC1 (stereo not shown) [Example 301, [1-(6-chloro-1,3-benzoxazol-2-yl)cyclobutyl](pyridin-2-yl)methanol] | –
5 | 501 to 1000 nM | 32% | 80% | OC1CC(c2cncc(C(F)(F)F)c2)(C(O)c2ccccn2)C1 [Example 303, cis-3-[(S)-hydroxy(pyridin-2-yl)methyl]-3-[5-(trifluoromethyl)pyridin-3-yl]-cyclobutanol] | –
6 | 50 to 500 nM | 44% | >85% | OC1CC(c2cncc(C(F)(F)F)c2)(C(O)c2ccccn2)C1 [Example 304, trans-3-[(S)-hydroxy(pyridin-2-yl)methyl]-3-[5-(trifluoromethyl)pyridin-3-yl]cyclobutanol] | –
7 | 50 to 500 nM | 49% | 63% | OC1CC(c2ccnc(C(F)(F)F)c2)(C(O)c2ccccn2)C1 [Example 305, cis-3-[(S)-hydroxy(pyridin-2-yl)methyl]-3-[2-(trifluoromethyl)pyridin-4-yl]-cyclobutanol] | –
8 | 50 to 500 nM | >85% | >85% | OC1CC(c2ccnc(C(F)(F)F)c2)(C(O)c2ccccn2)C1 [Example 306, trans-3-[(S)-hydroxy(pyridin-2-yl)methyl]-3-[2-(trifluoromethyl)pyridin-4-yl]cyclobutanol] | –
9 | 5100 to 20000 nM | >85% | 73% | CC1(O)CC(c2ccnc(C(F)(F)F)c2)(C(O)c2ccccn2)C1 [Example 307, trans-3-[(S)-hydroxy(pyridin-2-yl)methyl]-1-methyl-3-[2-(trifluoromethyl)-pyridin-4-yl]cyclobutanol] | –
10 | 501 to 1000 nM | 13% | 41% | CC1(O)CC(c2cncc(C(F)(F)F)c2)(C(O)c2ccccn2)C1 [Example 308, cis-3-[(S)-hydroxy(pyridin-2-yl)methyl]-1-methyl-3-[5-(trifluoromethyl)-pyridin-3-yl]cyclobutanol] | –
11 | 1100 to 5000 nM | >85% | >85% | OC1CC(c2ccc(Cl)c(Cl)c2)(C(O)c2ncccn2)C1 [Example 312, (trans)-3-(3,4-dichlorophenyl)-3-((S)-hydroxy(pyrimidin-2-yl)methyl)-cyclobutanol] | –

Row | Compound | IC50 [4, 6] | RAT MICROSOMAL STABILITY (% REMAINING AFTER 30 MINUTES) [2, 7] | HUMAN MICROSOMAL STABILITY (% REMAINING AFTER 30 MINUTES) ([3]; human, 0.5 h, 0.5 μM, pH 7.4) | other results
12 | pyridin-2-yl{1-[5-(trifluoromethyl)pyridin-3-yl]cyclobutyl}methanol [Example 110] | 50 to 500 nM | – | – | IC50 ([4]; mostly average of n≧2, read-out: IC50 (actual measured value, shown parenthetically)): 500 nM; RAT MICROSOMAL STABILITY (% REMAINING AFTER 30 MINUTES) [2, 5]: 2.8%; HUMAN MICROSOMAL STABILITY (% REMAINING AFTER 30 MINUTES) [3, 5]: 8.0%
